According to article PMC9496400, “Structural Comparison of hMDH2 Complexed with Natural Substrates and Cofactors: The Importance of Phosphate Binding for Active Conformation and Catalysis” (Biomolecules, 2022):

Columns and labels:
Type in all cases: binding
[1] = molecular target: T1, human mitochondrial malate dehydrogenase (hMDH2) (Homo sapiens, UniProt P40926); test: crystal structure ([…] Å; also with NAD, 4WLU, […] Å)
T1 construct: gene MDH2
T1 sequence (P40926 19-338): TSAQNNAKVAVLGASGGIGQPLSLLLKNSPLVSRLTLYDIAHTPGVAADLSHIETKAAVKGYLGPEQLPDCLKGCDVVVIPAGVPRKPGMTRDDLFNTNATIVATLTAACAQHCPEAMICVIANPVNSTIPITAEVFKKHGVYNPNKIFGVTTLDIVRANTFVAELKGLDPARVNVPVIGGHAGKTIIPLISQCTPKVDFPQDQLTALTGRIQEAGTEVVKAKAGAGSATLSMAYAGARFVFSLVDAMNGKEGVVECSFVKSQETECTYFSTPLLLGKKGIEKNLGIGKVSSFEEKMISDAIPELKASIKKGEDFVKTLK

[2] = molecular target: T1, human mitochondrial malate dehydrogenase (hMDH2); test: crystal structure ([…] Å); competitive replacement ITC with NADH
[3] = molecular target: T1, human mitochondrial malate dehydrogenase (hMDH2); test: crystal structure ([…] Å); enzyme activity increased by phosphate
[4] = molecular target: T1, human mitochondrial malate dehydrogenase (hMDH2); test: crystal structure ([…] Å)
[5] = molecular target: T1, human mitochondrial malate dehydrogenase (hMDH2); test: ITC direct titration; crystal structure with oxaloacetate
[6] = molecular target: T1, human mitochondrial malate dehydrogenase (hMDH2); test: crystal structure of the ternary complex with NADH ([…] Å)

Structure (SMILES): O=C(O)C[C@H](O)C(=O)O [L-malate]
- crystal structure (2.20 Å; also with NAD, 4WLU, 2.14 Å) [1]: Both L-malate and citrate bound in the same site of hMDH2 and formed hydrogen bonds with the surrounding residues

Structure (SMILES): NC(=O)c1ccc[n+]([C@@H]2O[C@H](COP(=O)([O-])OP(=O)(O)OC[C@H]3O[C@@H](n4cnc5c(N)ncnc54)[C@H](O)[C@@H]3O)[C@@H](O)[C@H]2O)c1 [NAD]
- Kd [2]: 2310 µM

Structure (SMILES): O=P(O)(O)O [phosphate]
- crystal structure (2.28 Å); enzyme activity increased by phosphate [3]: two phosphate ions were located in the substrate binding site and a third in the position of the ribose ring

Structure (SMILES): O=C(O)CC(O)(CC(=O)O)C(=O)O [citrate]
- crystal structure (1.90 Å) [4]: The citrate occupied the substrate binding site in the refined structure.

Structure (SMILES): NC(=O)C1=CN([C@@H]2O[C@H](COP(=O)(O)OP(=O)(O)OC[C@H]3O[C@@H](n4cnc5c(N)ncnc54)[C@H](O)[C@@H]3O)[C@@H](O)[C@H]2O)C=CC1 [NADH]
- Kd [5]: 3.05 µM

Structure (SMILES): O=C(O)CC(=O)C(=O)O [oxaloacetate]
- crystal structure of the ternary complex with NADH (2.50 Å) [6]: Arg104 paired with only one oxygen atom of oxaloacetate
